{"source": "ChEMBL document CHEMBL1201862", "about": "“PubChem BioAssay data set” (2004)", "target": "Envelope glycoprotein gp160 (Human immunodeficiency virus 1, UniProt Q6QLK5)", "sequence (Q6QLK5 whole entry, the tested form may be a part)": "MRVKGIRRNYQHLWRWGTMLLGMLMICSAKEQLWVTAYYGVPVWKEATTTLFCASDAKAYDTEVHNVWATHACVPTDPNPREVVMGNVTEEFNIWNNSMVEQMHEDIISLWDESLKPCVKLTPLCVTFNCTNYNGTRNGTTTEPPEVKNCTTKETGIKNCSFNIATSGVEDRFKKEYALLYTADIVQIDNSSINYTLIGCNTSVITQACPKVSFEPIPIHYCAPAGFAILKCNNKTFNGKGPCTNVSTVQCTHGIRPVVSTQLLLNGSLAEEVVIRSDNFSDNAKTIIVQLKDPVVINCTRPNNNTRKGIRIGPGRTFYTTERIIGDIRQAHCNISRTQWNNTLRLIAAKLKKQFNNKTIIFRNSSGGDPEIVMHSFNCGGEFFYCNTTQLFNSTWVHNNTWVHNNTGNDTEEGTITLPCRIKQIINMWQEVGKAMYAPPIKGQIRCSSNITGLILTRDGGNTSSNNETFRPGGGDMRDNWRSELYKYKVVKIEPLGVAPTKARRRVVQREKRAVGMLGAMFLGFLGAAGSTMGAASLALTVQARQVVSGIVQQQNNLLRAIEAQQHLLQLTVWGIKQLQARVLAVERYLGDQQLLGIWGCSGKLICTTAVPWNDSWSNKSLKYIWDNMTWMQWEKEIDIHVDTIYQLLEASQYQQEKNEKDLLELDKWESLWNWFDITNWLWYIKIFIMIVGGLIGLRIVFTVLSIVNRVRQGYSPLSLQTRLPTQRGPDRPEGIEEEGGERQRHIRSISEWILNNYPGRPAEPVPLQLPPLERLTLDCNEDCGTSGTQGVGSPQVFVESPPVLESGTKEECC", "assay": "cell-free HIV fusion peptide-binding blockers – biochemical, uHTS, fluorescence dequenching, […] (AID 1986)", "note": "Calls of active or inactive are those of the source. No stated cut-off is given here; in the data, actives have a measured IC50 and inactives only a lower limit."}
{"compound": "O=C(O)c1[nH]c2ccccc2c1C(c1cc(Br)ccc1O)c1c(C(=O)O)[nH]c2ccccc12", "values": [{"measurement": "IC50", "result": "4.11 µM (active)"}]}
{"compound": "COc1cc(/C=N/Nc2ccc(Cl)c(C(=O)O)c2)ccc1OC(=O)c1ccc(F)cc1", "values": [{"measurement": "IC50", "result": "26.8 µM (active)"}]}
